Read-outs that look alike come from different tables or passages of the source.
What was measured:
PI3Kβ = target: T1, PI3Kβ (Homo sapiens, UniProt P42338); assay: Enzyme binding assay (KINOMEscan, DiscoveRx); details: PIK3Cβ_h, read-out: Kd PIK3Cβ_h
T1 construct: purchased DiscoveRx Corporation, San Diego (contract service, KINOMEscan)
Procedure, shortened: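 Kinase binding affinities were measured with KINOMEscan technology. Results are given as Kd, the inhibitor binding constant, in nM.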

PI3Kδ = target: T2, PI3Kδ (Homo sapiens, UniProt O00329); assay: Enzyme binding assay (KINOMEscan, DiscoveRx); details: PIK3Cδ_h
T2 construct: purchased DiscoveRx Corporation, San Diego (contract service, KINOMEscan)
T2 sequence (O00329 1-1044): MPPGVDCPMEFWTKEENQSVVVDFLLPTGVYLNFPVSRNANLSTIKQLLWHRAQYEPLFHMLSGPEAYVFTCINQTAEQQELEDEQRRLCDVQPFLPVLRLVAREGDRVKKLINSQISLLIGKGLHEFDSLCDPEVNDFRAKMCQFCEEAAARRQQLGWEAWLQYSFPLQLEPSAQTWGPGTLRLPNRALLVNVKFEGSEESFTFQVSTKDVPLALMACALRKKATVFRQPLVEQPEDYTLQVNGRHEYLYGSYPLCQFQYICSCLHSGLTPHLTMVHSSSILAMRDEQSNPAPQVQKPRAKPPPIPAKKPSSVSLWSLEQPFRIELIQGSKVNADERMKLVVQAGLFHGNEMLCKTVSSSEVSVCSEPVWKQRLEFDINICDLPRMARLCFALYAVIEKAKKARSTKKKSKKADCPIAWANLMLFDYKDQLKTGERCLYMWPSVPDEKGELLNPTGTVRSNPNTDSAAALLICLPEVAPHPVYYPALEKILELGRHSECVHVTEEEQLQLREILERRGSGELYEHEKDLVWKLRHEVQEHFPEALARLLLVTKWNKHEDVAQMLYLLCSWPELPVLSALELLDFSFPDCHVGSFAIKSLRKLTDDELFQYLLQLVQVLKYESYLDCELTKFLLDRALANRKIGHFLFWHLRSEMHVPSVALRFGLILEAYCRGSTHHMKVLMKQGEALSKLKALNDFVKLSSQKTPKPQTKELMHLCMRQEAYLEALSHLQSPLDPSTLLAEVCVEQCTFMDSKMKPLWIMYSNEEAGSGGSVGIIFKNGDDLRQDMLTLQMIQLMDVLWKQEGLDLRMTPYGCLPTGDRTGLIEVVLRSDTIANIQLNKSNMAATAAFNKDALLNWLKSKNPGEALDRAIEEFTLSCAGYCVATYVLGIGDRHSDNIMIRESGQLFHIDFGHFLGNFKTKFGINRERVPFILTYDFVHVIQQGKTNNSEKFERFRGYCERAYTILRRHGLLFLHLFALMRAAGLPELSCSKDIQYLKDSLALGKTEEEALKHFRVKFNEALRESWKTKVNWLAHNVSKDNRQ
Procedure, shortened: (§1)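 Binding affinities were measured on the KINOMEscan platform.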

kinase enzymes [1] = target: T3, kinase enzymes (Homo sapiens, UniProt P42336); assay: Enzyme binding assay (KINOMEscan, DiscoveRx), further kinases of Table A; details: PIK3Cα_h
T3 construct: purchased DiscoveRx Corporation, San Diego (contract service, KINOMEscan)
T3 sequence (P42336 whole entry): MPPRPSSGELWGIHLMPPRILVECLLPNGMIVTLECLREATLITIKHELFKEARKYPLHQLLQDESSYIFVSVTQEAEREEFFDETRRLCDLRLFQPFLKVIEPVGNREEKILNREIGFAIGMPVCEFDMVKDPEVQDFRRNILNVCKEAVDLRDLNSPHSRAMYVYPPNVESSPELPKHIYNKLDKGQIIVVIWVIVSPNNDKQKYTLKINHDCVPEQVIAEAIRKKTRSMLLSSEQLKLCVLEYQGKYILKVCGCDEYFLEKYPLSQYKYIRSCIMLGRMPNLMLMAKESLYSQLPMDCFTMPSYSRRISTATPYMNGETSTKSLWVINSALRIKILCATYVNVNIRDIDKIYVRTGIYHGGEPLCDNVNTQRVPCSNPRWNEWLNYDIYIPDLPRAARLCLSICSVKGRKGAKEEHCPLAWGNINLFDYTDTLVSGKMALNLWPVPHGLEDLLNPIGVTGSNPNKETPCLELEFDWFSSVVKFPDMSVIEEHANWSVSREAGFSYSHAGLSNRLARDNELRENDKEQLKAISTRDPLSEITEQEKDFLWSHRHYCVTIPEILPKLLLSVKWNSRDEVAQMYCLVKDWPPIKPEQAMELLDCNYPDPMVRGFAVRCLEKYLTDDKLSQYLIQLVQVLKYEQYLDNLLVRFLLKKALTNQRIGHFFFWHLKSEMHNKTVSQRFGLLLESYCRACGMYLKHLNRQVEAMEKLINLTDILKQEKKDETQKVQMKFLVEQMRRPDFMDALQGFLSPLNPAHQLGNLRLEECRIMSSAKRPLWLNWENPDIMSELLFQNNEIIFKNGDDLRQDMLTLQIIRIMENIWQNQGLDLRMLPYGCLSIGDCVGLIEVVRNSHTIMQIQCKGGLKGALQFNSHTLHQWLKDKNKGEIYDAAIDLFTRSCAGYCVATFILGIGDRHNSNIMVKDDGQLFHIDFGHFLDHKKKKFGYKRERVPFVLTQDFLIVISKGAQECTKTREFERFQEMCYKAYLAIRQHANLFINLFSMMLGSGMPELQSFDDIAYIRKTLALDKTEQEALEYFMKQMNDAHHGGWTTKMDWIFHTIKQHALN
Procedure, shortened: as §1

kinase enzymes [2] = target: T4, kinase enzymes (Homo sapiens, UniProt P42345); assay: as above; details: MTOR_h
T4 construct: purchased DiscoveRx Corporation, San Diego (contract service, KINOMEscan)
Procedure, shortened: as §1

kinase enzymes [3] = target: T5, kinase enzymes (Homo sapiens, UniProt P48736); assay: as above; details: PIK3Cγ_h
T5 construct: purchased DiscoveRx Corporation, San Diego (contract service, KINOMEscan)
T5 sequence (P48736 whole entry): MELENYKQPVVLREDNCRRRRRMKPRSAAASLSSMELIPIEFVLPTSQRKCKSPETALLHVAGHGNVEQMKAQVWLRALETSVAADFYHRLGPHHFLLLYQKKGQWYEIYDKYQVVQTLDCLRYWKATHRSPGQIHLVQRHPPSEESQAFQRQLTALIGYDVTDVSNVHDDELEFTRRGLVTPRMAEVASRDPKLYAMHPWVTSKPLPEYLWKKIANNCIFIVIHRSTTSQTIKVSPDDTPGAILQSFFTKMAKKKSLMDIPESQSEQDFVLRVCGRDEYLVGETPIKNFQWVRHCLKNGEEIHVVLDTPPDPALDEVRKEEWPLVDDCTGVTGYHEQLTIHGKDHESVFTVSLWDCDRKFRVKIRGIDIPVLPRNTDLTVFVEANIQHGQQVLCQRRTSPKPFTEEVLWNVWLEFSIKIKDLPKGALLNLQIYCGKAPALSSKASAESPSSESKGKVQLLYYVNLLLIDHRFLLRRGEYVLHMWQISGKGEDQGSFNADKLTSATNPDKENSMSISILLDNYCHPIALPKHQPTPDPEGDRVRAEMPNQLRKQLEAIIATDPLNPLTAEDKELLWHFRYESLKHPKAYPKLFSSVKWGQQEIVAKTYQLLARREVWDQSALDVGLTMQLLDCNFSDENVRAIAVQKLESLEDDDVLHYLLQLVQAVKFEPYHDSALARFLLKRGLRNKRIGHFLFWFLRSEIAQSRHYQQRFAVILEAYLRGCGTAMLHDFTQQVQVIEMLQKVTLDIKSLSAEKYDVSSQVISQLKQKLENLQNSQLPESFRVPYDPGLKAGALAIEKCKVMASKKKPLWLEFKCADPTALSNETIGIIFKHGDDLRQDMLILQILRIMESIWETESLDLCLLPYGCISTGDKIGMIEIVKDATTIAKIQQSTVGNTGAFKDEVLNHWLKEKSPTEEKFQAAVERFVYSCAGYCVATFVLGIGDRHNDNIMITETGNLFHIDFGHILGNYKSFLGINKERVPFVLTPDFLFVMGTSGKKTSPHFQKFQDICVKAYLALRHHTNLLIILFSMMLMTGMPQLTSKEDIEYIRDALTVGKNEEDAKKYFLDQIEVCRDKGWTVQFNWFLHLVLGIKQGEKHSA
Procedure, shortened: as §1

[4] = tested on: Akt phosphorylated at Ser473 in PC-3 cells; assay: Cellular assay: phosphorylation of Akt at Ser473 in PC-3 cells (MSD ELISA); type: cell-based; details: PC-3 cells, 60 min compound incubation, MSD ELISA, read-out: IC50 pAkt_S473
Procedure, shortened: (§2)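 Compound treatment of PC-3 cells lasted 60 min at 37° C (0.3% DMSO). Lysates were then applied to plates carrying capture antibodies for the relevant phospho-site, and bound Akt was detected with an electrochemiluminescent anti-total Akt antibody; IC50s derive from five-point curves.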

[5] = tested on: Akt phosphorylated at Thr308 in PC-3 cells; assay: Cellular assay: phosphorylation of Akt at Thr308 in PC-3 cells (MSD ELISA); type: cell-based; details: PC-3 cells, 60 min compound incubation, MSD ELISA, read-out: IC50 pAkt_Thr308
Procedure, shortened: as §2

T1 sequence (P42338 whole entry): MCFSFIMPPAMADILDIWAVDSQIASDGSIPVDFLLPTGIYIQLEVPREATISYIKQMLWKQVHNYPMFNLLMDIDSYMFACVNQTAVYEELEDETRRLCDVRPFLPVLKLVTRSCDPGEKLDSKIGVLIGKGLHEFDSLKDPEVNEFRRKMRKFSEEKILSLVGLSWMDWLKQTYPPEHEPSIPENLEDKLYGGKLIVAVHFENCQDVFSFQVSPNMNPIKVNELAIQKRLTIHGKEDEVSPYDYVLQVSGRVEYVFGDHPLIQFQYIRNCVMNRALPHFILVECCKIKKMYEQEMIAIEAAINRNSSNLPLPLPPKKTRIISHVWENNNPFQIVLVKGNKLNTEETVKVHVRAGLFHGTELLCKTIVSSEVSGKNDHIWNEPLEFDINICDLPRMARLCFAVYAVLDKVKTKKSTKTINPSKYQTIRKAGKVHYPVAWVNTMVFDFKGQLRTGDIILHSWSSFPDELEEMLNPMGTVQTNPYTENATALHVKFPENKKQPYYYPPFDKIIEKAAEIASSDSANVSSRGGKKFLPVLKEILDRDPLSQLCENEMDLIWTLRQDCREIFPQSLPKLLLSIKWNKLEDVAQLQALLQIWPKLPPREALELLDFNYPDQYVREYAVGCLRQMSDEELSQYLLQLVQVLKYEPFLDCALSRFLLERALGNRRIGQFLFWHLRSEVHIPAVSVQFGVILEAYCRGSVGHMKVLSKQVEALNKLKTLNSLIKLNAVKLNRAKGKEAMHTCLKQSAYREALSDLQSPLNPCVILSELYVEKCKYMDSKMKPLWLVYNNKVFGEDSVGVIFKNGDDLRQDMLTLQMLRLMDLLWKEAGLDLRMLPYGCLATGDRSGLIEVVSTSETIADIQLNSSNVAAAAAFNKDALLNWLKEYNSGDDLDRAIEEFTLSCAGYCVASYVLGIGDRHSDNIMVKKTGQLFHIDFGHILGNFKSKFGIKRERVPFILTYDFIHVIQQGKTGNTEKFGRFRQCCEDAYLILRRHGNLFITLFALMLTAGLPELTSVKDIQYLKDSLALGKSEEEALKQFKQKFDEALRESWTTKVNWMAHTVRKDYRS

| Structure (SMILES) | Kd (PI3Kβ) [µM] | Kd (PI3Kδ) [µM] | Kd (kinase enzymes [1]) [µM] | Kd (kinase enzymes [2]) [µM] | Kd (kinase enzymes [3]) [µM] | IC50 [4] [µM] | IC50 [5] [µM] | melting point [°C] | IC50 ([4]; Homo sapiens, PC-3, 1 h) [µM] | IC50 ([5]; Homo sapiens, PC-3, 1 h) [µM] |
| --- | --- | --- | --- | --- | --- | --- | --- | --- | --- | --- |
| CNCCOCCN(C)C(=O)c1cc(C(C)Nc2cc(F)c(F)c(F)c2)c2nc(N3CCOCC3)cnc2c1 (single isomer, unassigned) [Compound 315b] | 0.001 | 0.162 | 2.75 | > 30.2 | 5.49 | ~0.11 | ~0.085 | 90 |  |  |
| CC(Nc1ccc(F)c(F)c1)c1cc(C(=O)N2CCC[C@H](O)C2)cc2ncc(N3CCOCC3)nc12 (some centres unmarked) [Compound 302] | 0.005 | 0.38 | 1.95 | > 30.2 | 15.5 |  |  | 80 | 0.076 | 0.076 |
| CC(Nc1cccc(F)c1)c1cc(C(=O)N2CCOCC2)cc2ncc(N3CCOCC3)nc12 (centres unmarked) [Compound 104] | 0.003 | 0.263 | 1.35 | > 30.2 | 17.8 |  |  | 80 | 0.11 | 0.055 |
| CC(Nc1ccc(F)c(F)c1)c1cc(C(=O)N[C@H]2CCNC2)cc2ncc(N3CCOCC3)nc12 (single isomer, unassigned) [Compound 374b] | 0.098 | 5.75 | 13.5 | > 30.2 | 21.9 | > 0.513 | > 0.513 | 130 |  |  |
| CC(Nc1cc(F)cc(F)c1)c1cc(C(=O)O)cc2ncc(N3CCOCC3)nc12 (single isomer, unassigned) [Compound 83c] | 0.158 | 4.9 | 3.09 | 3.09 | 2.69 | > 0.513 | > 0.513 | 157 |  |  |
| CC1CN(c2cnc3cc(C(=O)N(C)C)cc(C(C)Nc4cccc(F)c4)c3n2)CCO1 (centres unmarked) [Compound 136] | 0.003 | 0.355 | 2.34 | 15.1 | 5.13 |  |  | 184 | 0.178 | 0.065 |
| O=C(c1cc(C2CCCN2c2cc(F)cc(F)c2)c2nc(N3CCOCC3)cnc2c1)N1CC(CO)C1 (centres unmarked) [Compound 63] | 0.0005 | 0.027 | 0.079 | 8.13 | 0.891 |  |  | 100 | 0.009 | 0.004 |
| O=C(c1cc(C2CCCN2c2cc(F)cc(F)c2)c2nc(N3CCOCC3)cnc2c1)N1CC2(COC2)C1 (single isomer, unassigned) [Compound 47] | 0.0002 | 0.032 | 0.041 | 14.8 | 0.759 |  |  | 80 | 0.003 | 0.004 |
| Fc1cc(F)cc(N2CCCC2c2cncc3ncc(N4CCOCC4)nc23)c1 (single isomer, unassigned) [Compound 25] | 0.037 | 4.68 | 12.3 | > 30.2 | 12.9 | > 0.513 | > 0.513 | 98 |  |  |
| CC(C)NCCNC(=O)c1cc(C(C)Nc2cc(F)cc(F)c2)c2nc(N3CCOCC3)cnc2c1 (single isomer, unassigned) [Compound 211] | 0.001 | 0.19 | 3.37 | 20.2 | 3.6 | 0.036 | 0.022 | 206 |  |  |
| CN[C@H]1CCN(C(=O)c2cc(C(C)Oc3ccc(F)c(F)c3)c3nc(N4CCOCC4)cnc3c2)C1 (single isomer, unassigned) [Compound 370a] | 0.0003 | 0.107 | 1.23 | > 30.2 | 2.63 | 0.107 | 0.04 | 128 |  |  |
| COc1cccc(NC(C)c2cc(C(=O)N3CCOCC3)cc3ncc(N4CCOCC4)nc23)c1 (centres unmarked) [Compound 121] | 0.01 | 1.59 | 5.37 | > 30.2 | > 30.2 |  |  | 80 | 0.347 | ~0.331 |
| CC(Nc1cc(F)cc(F)c1)c1cc(CN2CCOCC2)cc2ncc(N3CCOCC3)nc12 (centres unmarked) [Compound 168] | 0.017 | 1.86 | 3.63 | > 30.2 | > 30.2 |  |  | 165 | 0.214 | 0.112 |
| CNCCNC(=O)c1cc(C(C)Nc2cc(F)ccc2F)c2nc(N3CCOCC3)cnc2c1 (centres unmarked) [Compound 132] | 0.0005 | 0.115 | 0.832 | 11.5 | 2.19 |  |  | 80 | 0.052 | 0.037 |
| CC(C)NCCNC(=O)c1cc(C(C)Nc2cccc(F)c2)c2nc(N3CCOCC3)cnc2c1 (single isomer, unassigned) [Compound 227] | 0.001 | 0.339 | 1.78 | > 30.2 | 3.8 | 0.027 | 0.02 | 80 |  |  |
| Cc1ccc(NC(C)c2cc(C(=O)NCCO)cc3ncc(N4CCOCC4)nc23)cc1F (centres unmarked) [Compound 295] | 0.309 | 7.76 | 7.24 | 30.9 | 6.31 |  |  | 80 | > 0.513 | > 0.513 |

— patent US10526316B2, “Quinoxaline and pyridopyrazine derivatives as PI3Kβ inhibitors” (Janssen Pharmaceutica NV, priority 2015, dated 2020)
